Each block holds one compound with its values, some of them ahead of it. Calls of active or inactive are those of the source. No cut-off for these calls is given here.
Assays:
Cryptosporidium parvum [1] = experiment: AntiCryptosporidium parvum activity Compounds added 3h after t0, IC 50 (uM); type: functional, organism-based
Cryptosporidium parvum [2] = experiment: AntiCryptosporidium parvum activity Compounds added at t0, IC 50 (uM); type: functional, organism-based
HepG2 = experiment: Cytotoxicity data HepG2 CC20 (uM); type: functional
[3] = HL60 CC50 (uM) Cytotoxicity; type: functional; details: HL-60
Schistosoma mansoni [4] = experiment: AntiSchistosoma mansoni activity Larva IC50 (uM); type: functional, organism-based
Schistosoma mansoni [5] = experiment: AntiSchistosoma mansoni activity Juveniles IC50 (uM); type: functional, organism-based
Schistosoma mansoni [6] = experiment: AntiSchistosoma mansoni activity Adults IC50 (uM); type: functional, organism-based
Schistosoma mansoni [7] = experiment: AntiSchistosoma mansoni activity Newly Transformed Schistosomula: inhibition at 10 uM at 72h (%); type: functional
Schistosoma mansoni [8] = experiment: AntiSchistosoma mansoni activity Newly Transformed Schistosomula: IC50 at 72h (uM); type: functional, organism-based
Schistosoma mansoni [9] = experiment: AntiSchistosoma mansoni activity Adults: Effect at 10 uM after 48h; type: functional, organism-based
MRC5 = experiment: MRC5 CC50 (uM) Cytotoxicity; type: functional; details: Homo sapiens
Brugia pahangi = experiment: AntiBrugia pahangi activity Average inhibition motility at 10 uM (%); type: functional
Onchocerca gutturosa [10] = experiment: AntiOnchocerca activity O. gutturosa adult males: Motility reduction at 12.5 uM (%); type: functional; design: scale not given: the % may be the effect or the level left
Onchocerca gutturosa [11] = experiment: AntiOnchocerca activity O. gutturosa adult males: MTT reduction at 12.5 uM (%); type: functional; design: scale not given: the % may be the effect or the level left
Onchocerca lienalis = experiment: AntiOnchocerca activity O. lienalis microfilariae Motility reduction (%); type: functional; design: concentration or dose not given beside the values
Onchocerca ochengi [12] = experiment: AntiOnchocerca activity O. ochengi adult females: final mean inhibition motility at 10 uM on Day 7 (%); type: functional
Onchocerca ochengi [13] = experiment: AntiOnchocerca activity O. ochengi adult males: final mean inhibition motility at 10 uM on Day 5 (%); type: functional
Onchocerca volvulus = experiment: AntiOnchocerca activity O. volvulus L3 Molting assay: inhibition at 10 uM (%); type: functional
Toxoplasma gondii [14] = experiment: AntiToxoplasma gondii activity data Inhibition of plaque forming efficiency (%) Experiment A; type: functional; design: concentration or dose not given beside the values
Toxoplasma gondii [15] = experiment: AntiToxoplasma gondii activity data 2-day killing assay: inhibition at 10 uM (%) Experiment C; type: functional; details: 48 h
Toxoplasma gondii [16] = experiment: AntiToxoplasma gondii activity data 2-day killing assay: inhibition at 10 uM (%) Experiment D; type: functional
Toxoplasma gondii [17] = experiment: AntiToxoplasma gondii activity data 2-day killing assay: inhibition at 10 uM (%) Experiment E; type: functional
Toxoplasma gondii [18] = experiment: AntiToxoplasma gondii activity data 2-day killing assay: IC50 (uM), Experiment F; type: functional, organism-based; details: Toxoplasma gondii, 48 h; read-out: IC50
Toxoplasma gondii [19] = experiment: AntiToxoplasma gondii activity data 2-day killing assay: IC50 (uM), Experiment G; type: functional, organism-based

SMILES: COc1ccc(N(CCc2cccc(C)n2)C(C)=O)cc1
- Inhibition (Brugia pahangi): 6%
- Activity (Onchocerca gutturosa [10]): 35.7%
- Activity (Onchocerca gutturosa [11]): 29.6%
- Activity (Onchocerca lienalis): 13.3%
- Inhibition (Onchocerca ochengi [12]): 0%
- Inhibition (Onchocerca ochengi [13]): 6%
- Inhibition (Onchocerca volvulus): 88%
- CC20 (HepG2): >80 µM
- CC50 [3]: > 50 µM

SMILES: Clc1ccc(-n2cc(COc3ccnc4ccccc34)nn2)cc1
- IC50 (Cryptosporidium parvum [1]): 1.51 µM
- IC50 (Cryptosporidium parvum [2]): > 5 µM
- CC20 (HepG2): 13.6 µM
- CC50 [3]: > 50 µM

SMILES: Nc1nc(N)c2c3c(sc2n1)CN(Cc1ccccc1)CC3
- Inhibition (Toxoplasma gondii [14]): 100%
- inhibition at 10 µM (Toxoplasma gondii [15]): 54.2%
- Inhibition (Toxoplasma gondii [16]): 83.2%
- Inhibition (Toxoplasma gondii [17]): 81.6%
- IC50 (Toxoplasma gondii [18]): 7.06 µM
- IC50 (Toxoplasma gondii [19]): no inhibition
- CC50 [3]: > 50 µM

SMILES: COC(=O)c1c(NC(=O)c2cc3ccccc3oc2=O)sc2c1CCN(Cc1ccccc1)C2
- Inhibition (Brugia pahangi): 10%
- Activity (Onchocerca gutturosa [10]): 21.4%
- Activity (Onchocerca gutturosa [11]): 0%
- Activity (Onchocerca lienalis): 33.3%
- Inhibition (Onchocerca ochengi [12]): 8%
- Inhibition (Onchocerca ochengi [13]): 0%
- Inhibition (Onchocerca volvulus): 100%
- CC20 (HepG2): 12.3 µM
- CC50 [3]: > 50 µM

SMILES: c1ccc(-c2[nH]c3ccccc3c2C(c2ccccn2)N2CCCC2)cc1 (centres undefined)
- IC50 (Schistosoma mansoni [4]): 0.5 µM
- IC50 (Schistosoma mansoni [5]): 2.5 µM
- IC50 (Schistosoma mansoni [6]): 3.2 µM
- Inhibition (Schistosoma mansoni [7]): 100%
- IC50 (Schistosoma mansoni [8]): 0.51 µM
- CC20 (HepG2): 1 µM
- CC50 (MRC5): 86 µM

SMILES: Nc1ncc(-c2ccc(C(F)(F)F)nc2)cc1-c1ccc(C(F)(F)F)nc1
- Activity (Onchocerca lienalis): 93%
- CC20 (HepG2): >80 µM

SMILES: Cc1ccccc1C(=O)N1N=C(Nc2ccccc2)SC1(C)C
- IC50 (Schistosoma mansoni [4]): 6.7 µM
- IC50 (Schistosoma mansoni [5]): 5.8 µM
- IC50 (Schistosoma mansoni [6]): 5.3 µM
- Inhibition (Schistosoma mansoni [7]): 0%
- CC20 (HepG2): 8 µM
- CC50 (MRC5): > 50 µM

SMILES: O=C(OCc1ccccc1)N1CCC(c2cc(-c3ccncc3)c(-c3ccc(F)cc3)[nH]2)CC1
- Inhibition (Toxoplasma gondii [14]): ~75%
- inhibition at 10 µM (Toxoplasma gondii [15]): 77%
- Inhibition (Toxoplasma gondii [16]): 76.8%
- Inhibition (Toxoplasma gondii [17]): 99.1%
- IC50 (Toxoplasma gondii [18]): 0.87 µM
- CC50 [3]: > 50 µM

SMILES: COc1ccc(-c2nn(C(C)C)c3ncnc(N)c23)cc1OC
- IC50 (Cryptosporidium parvum [1]): 13.9 µM
- IC50 (Cryptosporidium parvum [2]): 0.5 µM
- CC20 (HepG2): 1.63 µM
- CC50 [3]: 25.1 µM

The next lines start with results.

- IC50 (Cryptosporidium parvum [1]): > 10 µM
- IC50 (Cryptosporidium parvum [2]): 0.1 µM
SMILES: CC(C)(C)n1nc(Cc2cccc3ccccc23)c2c(N)ncnc21
- CC20 (HepG2): 19 µM
- CC50 [3]: 24.1 µM

- IC50 (Schistosoma mansoni [5]): 4 µM
- IC50 (Schistosoma mansoni [6]): 1.6 µM
- IC50 (Schistosoma mansoni [8]): 5.69 µM
SMILES: COc1ccc(-c2nnc3ccc(-c4cccc(C(C)C)c4)cn23)cc1OC
- IC50 (Schistosoma mansoni [4]): 6.6 µM
- Inhibition (Schistosoma mansoni [7]): 79%
- Activity (Schistosoma mansoni [9]): Active
- CC20 (HepG2): 7.5 µM
- CC50 (MRC5): 18.6 µM

- IC50 (Schistosoma mansoni [5]): 3.22 µM
- IC50 (Schistosoma mansoni [6]): 4.8 µM
SMILES: CS(=O)(=O)c1ccc(C(=O)N(CC2CCCO2)c2nc3ccccc3s2)cc1[N+](=O)[O-] (centres undefined)
- IC50 (Schistosoma mansoni [4]): 0.29 µM
- Inhibition (Schistosoma mansoni [7]): 100%
- CC20 (HepG2): 6.94 µM
- CC50 (MRC5): 6.2 µM

- IC50 (Cryptosporidium parvum [1]): > 10 µM
- IC50 (Cryptosporidium parvum [2]): 0.1 µM
SMILES: CS(=O)(=O)N1CCC(Cn2nc(Cc3cccc4ccccc34)c3c(N)ncnc32)CC1
- CC20 (HepG2): 53 µM
- CC50 [3]: 47.3 µM

- IC50 (Schistosoma mansoni [5]): 3.8 µM
- IC50 (Schistosoma mansoni [6]): 7.2 µM
- IC50 (Schistosoma mansoni [8]): 0.29 µM
SMILES: Cc1[nH]c2ccccc2c1C(c1cccs1)N1CCN(C)CC1 (centres undefined)
- Inhibition (Schistosoma mansoni [7]): 100%
- CC20 (HepG2): 8.46 µM
- CC50 (MRC5): > 20 µM

- IC50 (Schistosoma mansoni [8]): 0.43 µM
SMILES: Cn1ncc2c(N3CCOCC3)nc(NCCc3c[nH]c4ccccc34)nc21 [TDR79432]
- Inhibition (Schistosoma mansoni [7]): 88%
- Activity (Schistosoma mansoni [9]): Active
- CC20 (HepG2): 4.63 µM

- IC50 (Cryptosporidium parvum [1]): 3.98 µM
- IC50 (Cryptosporidium parvum [2]): 0.1 µM
SMILES: COc1ccc(OC)c(NCc2ccc3nc(N)nc(N)c3c2Cl)c1
- CC20 (HepG2): 3.44 µM
- CC50 [3]: > 25 µM

- IC50 (Cryptosporidium parvum [1]): 25.9 µM
- IC50 (Cryptosporidium parvum [2]): 0.5 µM
SMILES: Nc1ncnc2c1c(Cc1cccc3ccccc13)nn2CC1CCNCC1
- CC20 (HepG2): >80 µM
- CC50 [3]: > 50 µM

- IC50 (Cryptosporidium parvum [2]): 0.05 µM
SMILES: CCOc1ccc2cc(-c3nn(C(C)(C)C)c(N)c3C(N)=O)cnc2c1

- IC50 (Cryptosporidium parvum [1]): > 10 µM
- IC50 (Cryptosporidium parvum [2]): > 10 µM
SMILES: CC(C)C(Oc1cccc2ccccc12)C(=O)O (centres undefined)
- CC20 (HepG2): >80 µM
- CC50 [3]: > 50 µM
